The nature of the data set: Metabolite profile of [14C] compound (I) in human liver microsome incubations. The class given is in vitro ADME. As to conditions: (Ia) 20 μM, 15 min, 37° C., 2 mg/mL microsomal protein, 2.0 mM NADPH. Here is the method:
The compound of formula (I) was used as the [^14C] compound (Ia) (30.4 μCi/mg, radiochemical purity 99.2%), as the monohydrate of the free base. The C-14 label was on the carbon in the 2-position of the thiazole ring.
Freshly isolated rat hepatocyte preparations were prepared from one male Sprague-Dawley rat. Rat Hepatocytes were prepared according to a standard procedure (Seglen, PO. Preparation of isolated rat liver cells. Methods Cell Biol., 1976, 13: 29-83). Cryopreserved cynomolgus monkey hepatocytes (male, pooled, n=6) and human hepatocytes (3 individual preparation) were purchased from In Vitro Technologies (Baltimore, Md.). Microsomes from male SD Rats (pooled, n=200, 20 mg/mL) and male cynomolgus monkeys (pooled, n=8, 20 mg/mL) were obtained from Xenotech LLC, Kansas City, Kans. Human liver microsomes (male, pooled, n=38) were from BD-Gentest, Woburn, Mass.
A 6 mM stock solution of the compound of formula (Ia) (the [^14C] of the compound of formula (I) was prepared at by dissolving 3.7 mg of the compound of formula (Ia) into 1:1 acetonitrile/DMSO. The 2 mM stock solution of the compound of formula (Ia) was obtained by diluting an aliquot of the 6 mM stock solution 3-fold with acetonitrile.
Hepatocyte incubations were conducted at 37° C. for 3 h in a NAPCO CO2 6000 incubator (VWR Scientific Products) under a 5% CO2 atmosphere using an orbital shaker at 90 rpm. For each incubation, the final concentration of compound (Ia) was 20 μM and the hepatocyte concentrations were ˜2 million cells/mL. A control incubation, in the absence of hepatocytes, was also performed for 3 h. The incubations were stopped by adding one volume of ice-cold acetonitrile. Each 0.5 mL incubation contained 0.1 M potassium phosphate buffer (pH 7.4), 2.5 mM MgCl2, 2 mg/mL microsomal protein, and 2.0 mM NADPH. The final substrate concentration was 20 μM. The mixtures were incubated in a shaking water bath at 37° C. for 15 min. Control incubations in the absence of microsomes or NADPH were performed for each species. The reactions were stopped with the addition of 1 mL of ice-cold acetonitrile.
HPLC was performed on a Waters Alliance™ system equipped with Waters 2695 pumps and a photodiode array detector (Waters 2996). A Phenomenex Synergy Polar-RP® column (4.6×250 mm, 5 micron) was used for metabolite separation. All HPLC analyses were performed at 1 mL/min flow rate at room temperature. Two HPLC mobile phase and gradient systems were used because all metabolites could not be completely separated on either of the individual HPLC systems. The first system consisted of (A) water with 0.1% formic acid and (B) acetonitrile with 0.1% formic acid as mobile phase. The linear gradient was as follows: 0 min, 20% B; 1 min, 20% B; 41 min, 35% B; 42 min, 90% B; 44 min, 90% B. The column was re-equilibrated at 20% B for 6 min before the next injection. The second HPLC system was used to separate certain co-eluting metabolites that could not be separated by the first system. The mobile phase consisted of (A) water with 0.1% triflouroacetic acid (TFA) and (B) acetonitrile with 0.1% TFA. The gradient was as follows: 0 min, 20% B; 1 min, 20% B; 51 min, 35% B; 52 min, 90% B; 54 min 90% B. The column was equilibrated at 20% B for 6 min prior to the next injection.
On-line radioactivity detection (RAD) was conducted using an INUS β-RAM detector (Model 3, INUS, Tampa, Fla.). The β-RAM was operated with a 500 μL liquid flow cell in the homogeneous liquid scintillation counting mode. A flow rate of 2 mL/min of scintillation cocktail was mixed with the HPLC effluent. The effluent from HPLC was split to the β-RAM detector (90%) and the mass spectrometer (10%) by adjusting the length and diameter of post column tubings. The β-RAM detector provided integrated output detailing the percentage and amount of radioactivity under each radioactive peak.
Hepatocyte and liver microsomal incubations were quenched with acetonitrile and were vortex-mixed for 3 min. […]
On the technique in general: Liver microsomes are a subcellular fraction often used to study metabolism.
`Cc1nc(Nc2ncc(C(=O)Nc3c(C)cccc3Cl)s2)cc(N2CCNCC2)n1` [M4 (II)]: the “% of Radioactivity in Microsomes, Human” value came to 4.0%.
For `Cc1nc(Nc2ncc(C(=O)Nc3c(C)cccc3Cl)s2)cc(N2CC[N+]([O-])(CCO)CC2)n1` [M5 (III)], the “% of Radioactivity in Microsomes, Human” value amounted to 4.0%.
Then `Cc1nc(Nc2ncc(C(=O)Nc3c(C)cccc3Cl)s2)cc(N2CCN(CC(=O)O)CC2)n1` [M6 (IV), 2-(4-(6-(5-((2-Chloro-6-methylphenyl)carbamoyl)thiazol-2-ylamino)-2-methylpyrimidin-4-yl)piperazin-1-yl)acetic acid], with 1.6%; and `Cc1nc(Nc2ncc(C(=O)Nc3c(C)cc(O)cc3Cl)s2)cc(N2CCN(CCO)CC2)n1` [M20 (V)], with 39.2%.
Under `Cc1nc(Nc2ncc(C(=O)Nc3c(Cl)cccc3CO)s2)cc(N2CCN(CCO)CC2)n1` [M24 (VI), N-(2-chloro-6-(hydroxymethyl)phenyl)-2-(6-(4-(2-hydroxyethyl)piperazin-1-yl)-2-methylpyrimidin-4-ylamino)thiazole-5-carboxamide] stands 39.2%; under `Cc1nc(Nc2ncc(C(=O)Nc3c(C)cccc3Cl)s2)cc(N2CCN(CCO)CC2)n1` [Parent (I), N-(2-Chloro-6-methylphenyl)-2-[[6-[4-(2-hydroxyethyl)-1-piperazinyl]-2-methyl-4-pyrimidinyl]amino]-5-thiazolecarboxamide], 35.5%.

Values taken from US20060211705A1, “'N-(2-chloro-6-methylphenyl)-2-[[6-[4-(2-hydroxyethyl)-1-piperazinyl]-2-methyl-4-pyrimidinyl]amino]-5-thiazolecarboxamides metabolites” (priority 2005, published 2006).
